Measurements from patent EP3722296B1, “DIHYDRONAPHTHYRIDINES AND RELATED COMPOUNDS USEFUL AS KINASE INHIBITORS FOR THE TREATMENT OF PROLIFERATIVE DISEASES” (Deciphera Pharmaceuticals, LLC, priority 2012, dated 2013).

Legend:
Phospho-KIT (Tyr719) [1] = assay: GIST430 KIT Western Blot; format: cell-based; conditions: GIST430 cells, 4 hours, serum-free medium; read-out: pKIT suppression by western blot analysi GIST430
Method: (§1) GIST48, GIST430, and GIST882 cells were obtained from J. Fletcher (Brigham and Women's Hospital, Boston, MA). GIST T1 cells were obtained from B. Rubin (Cleveland Clinic, Cleveland, OH) and Professor Takahiro Taguchi (Kochi Medical School, Nankoku, Kochi, Japan). […] GIST430 cells were grown in Ham's F10 medium supplemented with 15% characterized fetal bovine serum (Invitrogen, Carlsbad, CA), 30 mg/L bovine pituitary extract (BD Biosciences, San Jose, CA), 0.5% Mito+ serum extender (BD Biosciences, San Jose, CA), 1 unit/mL penicillin G, 1 µg/ml streptomycin, and 0.29 mg/mL L-glutamine at 37 °C, 5%CO2, 95% humidity. GIST T1 cells were grown in DMEM medium supplemented with 10% characterized fetal bovine serum (Invitrogen, Carlsbad, CA), 1 unit/mL penicillin G, 1 µg/ml streptomycin, and 0.29 mg/mL L-glutamine at 37 °C, 5% CO2, and 95% humidity.
(§2) One hundred fifty thousand cells were added per well in a 24-well tissue-culture treated plate. […] Medium was aspirated, cells were washed with PBS, and serum-free Ham's F10 medium was added. […] Cells were washed with PBS, then lysed. Cell lysates were separated by SDS-PAGE and transferred to PVDF. Phospho-KIT (Tyr719) was detected using an antibody from Cell Signaling Technology (Beverly, MA), ECL Plus detection reagent (GE Healthcare, Piscataway, NJ) and a Molecular Devices Storm 840 phosphorimager in fluorescence mode. Blots were stripped and probed for total KIT using an antibody from Santa Cruz Biotech (Santa Cruz, CA). IC50 values were calculated using Prism software (Graphpad, San Diego, CA).

Phospho-KIT (Tyr719) [2] = assay: GIST48 KIT Western Blot; format: cell-based; conditions: GIST48 cells, 4 hours, serum-free medium; read-out: pKIT suppression by western blot analysi GIST48
Method: as §1
as §2, with “Two” for “One”, “RPMI1640” for “Ham's F10”

GIST T1 cells = assay: GIST T1 Cell Proliferation Assay; format: cell-based; conditions: Homo sapiens, GISTT1, 72 h, 68 hours + 4 hours resazurin
Method: GIST48, GIST430, and GIST882 cells were obtained from J. Fletcher (Brigham and Women's Hospital, Boston, MA). GIST T1 cells were obtained from B. Rubin (Cleveland Clinic, Cleveland, OH) and Professor Takahiro Taguchi (Kochi Medical School, Nankoku, Kochi, Japan). Briefly, GIST48 and GIST 882 cells were grown in RPMI 1640 medium supplemented with 15% characterized fetal bovine serum (Invitrogen, Carlsbad, CA), 1 unit/mL penicillin G, 1 µg/ml streptomycin, and 0.29 mg/mL L-glutamine at 37 °C, 5% CO2, and 95% humidity. GIST430 cells were grown in Ham's F10 medium supplemented with 15% characterized fetal bovine serum (Invitrogen, Carlsbad, CA), 30 mg/L bovine pituitary extract (BD Biosciences, San Jose, CA), 0.5% Mito+ serum extender (BD Biosciences, San Jose, CA), 1 unit/mL penicillin G, 1 µg/ml streptomycin, and 0.29 mg/mL L-glutamine at 37 °C, 5%CO2, 95% humidity. GIST T1 cells were grown in DMEM medium supplemented with 10% characterized fetal bovine serum (Invitrogen, Carlsbad, CA), 1 unit/mL penicillin G, 1 µg/ml streptomycin, and 0.29 mg/mL L-glutamine at 37 °C, 5% CO2, and 95% humidity.
A serial dilution of test compound was dispensed into a 384-well black clear bottom plate (Corning, Corning, NY). One thousand two-hundred fifty cells were added per well in 50 µL complete growth medium. Plates were incubated for 68 hours at 37 °C, 5% CO2, 95% humidity. At the end of the incubation period 10 µL of a 440 µM solution of resazurin (Sigma, St. Louis, MO) in PBS was added to each well and incubated for an additional 4 hours at 37 °C, 5% CO2, 95% humidity. Plates were read on a Synergy2 reader (Biotek, Winooski, VT) using an excitation of 540 nm and an emission of 600 nm.

c-KIT V654A kinase = biological target: T1, c-KIT V654A kinase (Homo sapiens, UniProt P10721, V654A); assay: c-KIT V654A Kinase Assay; format: biochemical; conditions: enzymatic assay, ATP 200 µM
T1 construct: residues T544-V976 with N-terminal GST fusion; purchased deCODE Biostructures
Outline: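 Construct: cKIT residues T544–V976 with N-terminal tag, GST fusion and TEV site. Reaction started by adding serially diluted compound to the enzyme mixture; NADH oxidation, coupled to kinase turnover, followed as the decrease in A340 for 6 h at 30 °C.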

c-KIT D816H kinase = biological target: T2, c-KIT D816H kinase (Homo sapiens, UniProt P10721, D816H); assay: c-KIT D816H Kinase Assay; format: biochemical; conditions: enzymatic assay, ATP 200 µM
T2 construct: The construct contains residues T544-V976 of cKit; GST (N); TEV cleavage site (internal); purchased deCODE Biostructures
Outline: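 Coupled spectrophotometric assay following NADH oxidation as absorbance decrease at 340 nm, monitored continuously for 6 hours at 30 °C after adding serially diluted compound. Enzyme: mutant cKit construct with N-terminal tag, GST fusion and TEV cleavage site.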

c-KIT D816V kinase = biological target: T3, c-KIT D816V kinase (Homo sapiens, UniProt P10721, D816V); assay: c-KIT D816V kinase Assay; format: biochemical; conditions: enzymatic assay, ATP 200 uM
T3 construct: residues T544-V976 with N-terminal GST fusion; purchased deCODE Biostructures
Outline: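 Coupled assay in which NADH oxidation was tracked as decreasing absorbance at 340 nm, continuously for 5 hours at 30 °C after adding serially diluted compound. Enzyme: cKit residues T544-V976 with N-terminal tag, GST fusion and TEV cleavage site.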

c-KIT T670I kinase = biological target: T4, c-KIT T670I kinase (Homo sapiens, UniProt P10721, T670I); assay: c-KIT T670I kinase assay; format: biochemical; conditions: enzymatic assay
T4 construct: The construct contains residues T544-V976 of cKit; GST (N); TEV cleavage site (internal); purchased deCODE Biostructures
Outline: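 Coupled spectrophotometric assay following NADH oxidation as absorbance decrease at 340 nm, monitored continuously for 5 h at 30 °C after adding serially diluted compound. Enzyme is a cKit construct with N-terminal tag, GST fusion and TEV site, carrying the T670I mutation.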

c-KIT kinase = c-KIT kinase (Homo sapiens, UniProt P10721); assay: c-KIT kinase Assay; format: biochemical; set-up: cKIT residues T544-V976; GST (N); TEV cleavage site (internal); purchased deCODE Biostructures; conditions: enzymatic assay, ATP 200 µM; read-out: KIT (wt) IC50
Outline: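 Activity of wild-type human c-KIT kinase was followed as NADH oxidation, read as falling absorbance at 340 nm on a Synergy 2 plate reader (BioTeK) for 2 hours at 30 °C. Rates from the 0 to 1 h window were compared with an uninhibited control to give percent inhibition. IC50 values were fitted in GraphPad Prism across a range of inhibitor concentrations.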

T3 sequence (P10721 544-976 D816V): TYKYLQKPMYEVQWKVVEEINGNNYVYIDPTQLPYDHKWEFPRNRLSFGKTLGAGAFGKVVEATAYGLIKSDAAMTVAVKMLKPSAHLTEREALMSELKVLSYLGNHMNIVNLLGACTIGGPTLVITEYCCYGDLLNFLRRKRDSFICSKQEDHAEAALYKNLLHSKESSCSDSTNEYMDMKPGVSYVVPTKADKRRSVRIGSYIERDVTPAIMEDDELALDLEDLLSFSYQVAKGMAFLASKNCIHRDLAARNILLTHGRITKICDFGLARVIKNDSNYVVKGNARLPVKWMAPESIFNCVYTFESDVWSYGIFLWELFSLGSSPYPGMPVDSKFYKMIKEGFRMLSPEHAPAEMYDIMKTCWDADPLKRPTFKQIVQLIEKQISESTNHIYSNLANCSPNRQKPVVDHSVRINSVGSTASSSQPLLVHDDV
T1 sequence (P10721 544-976 V654A): as the sequence (P10721 544-976 D816V) above, with V111A, V273D counted along it
T4 sequence (P10721 544-976 T670I): as the sequence (P10721 544-976 D816V) above, with T127I, V273D counted along it
c-KIT kinase, sequence (P10721 544-976): as the sequence (P10721 544-976 D816V) above, with V273D counted along it
T2 sequence (P10721 544-976 D816H): as the sequence (P10721 544-976 D816V) above, with V273H counted along it

Row | IC50 (Phospho-KIT (Tyr719) [1]) [nM] | IC50 (Phospho-KIT (Tyr719) [2]) [nM] | IC50 (c-KIT V654A kinase) [nM] | IC50 (c-KIT D816H kinase) [nM] | IC50 (c-KIT D816V kinase) [nM] | IC50 (c-KIT T670I kinase) [nM] | IC50 (c-KIT kinase) [nM] | SMILES | IC50 (GIST T1 cells) [nM]
1 | 10 to 100 | 10 to 100 |  |  |  |  |  | CCn1c(=O)c(-c2cc(NC(=O)Nc3cccc(Cl)c3)c(F)cc2F)cc2cnc(NC)cc21 [Example 17, 1-(3-chlorophenyl)-3-(5-(1-ethyl-7-(methylamino)-2-oxo-1,2-dihydro-1,6-naphthyridin-3-yl)-2,4-difluorophenyl)urea] | 
2 | < 10 | 10 to 100 |  |  |  |  |  | CCn1c(=O)c(-c2cc(NC(=O)Nc3ccccc3)c(F)cc2Cl)cc2cnc(N)cc21 [Example 21, 1-(5-(7-amino-1-ethyl-2-oxo-1,2-dihydro-1,6-naphthyridin-3-yl)-4-chloro-2-fluorophenyl)-3-phenylurea] | < 10
3 | 10 to 100 | 100 to 1000 |  |  |  |  |  | CCn1c(=O)c(-c2cc(NC(=O)Nc3ccccc3)c(F)cc2Cl)cc2cnc(NCCCN(C)C)cc21 [Example 30, 1-(4-chloro-5-(7-(3-(dimethylamino)propylamino)-1-ethyl-2-oxo-1,2-dihydro-1,6-naphthyridin-3-yl)-2-fluorophenyl)-3-phenylurea] | 
4 | 10 to 100 | 100 to 1000 | 10 to 100 | < 10 | 10 to 100 | > 1000 | < 10 | CNc1cc2c(cn1)cc(-c1cc(NC(=O)Nc3cccc(F)c3)c(F)cc1C)c(=O)n2C(C)C [Example 41, 1-(2-fluoro-5-(1-isopropyl-7-(methylamino)-2-oxo-1,2-dihydro-1,6-naphthyridin-3-yl)-4-methylphenyl)-3-(3-fluorophenyl)urea] | 
5 | < 10 | 100 to 1000 |  |  |  |  |  | CCn1c(=O)c(-c2cc(NC(=O)Nc3ccccc3)c(F)cc2Br)cc2cnc(NC(C)=O)cc21 [Example 53, 1-(5-(7-acetamido-1-ethyl-2-oxo-1,2-dihydro-1,6-naphthyridin-3-yl)-4-bromo-2-fluorophenyl)-3-phenylurea] | < 10
6 | 10 to 100 | 100 to 1000 | < 10 |  | 10 to 100 | 10 to 100 | < 10 | CCn1c(=O)c(-c2cc(NC(=O)Nc3cc(F)cc(F)c3)c(F)cc2F)cc2cnc(NC)cc21 [Example 63, 1-(3,5-difluorophenyl)-3-(5-(1-ethyl-7-(methylamino)-2-oxo-1,2-dihydro-1,6-naphthyridin-3-yl)-2,4-difluorophenyl)urea] | < 10
7 | 10 to 100 | 100 to 1000 |  |  |  |  |  | CCn1c(=O)c(-c2cc(NC(=O)Nc3ccccc3)c(F)cc2F)cc2cnc(NC(C)=O)cc21 [Example 66, 1-(5-(7-acetamido-1-ethyl-2-oxo-1,2-dihydro-1,6-naphthyridin-3-yl)-2,4-difluorophenyl)-3-phenylurea] | < 10
8 | 10 to 100 | 100 to 1000 | 10 to 100 |  | 10 to 100 | 10 to 100 | < 10 | CCn1c(=O)c(-c2cc(NC(=O)Nc3cc(F)ccc3F)c(F)cc2Cl)cc2cnc(NC)cc21 [Example 68, 1-(4-chloro-5-(1-ethyl-7-(methylamino)-2-oxo-1,2-dihydro-1,6-naphthyridin-3-yl)-2-fluorophenyl)-3-(2,5-difluorophenyl)urea] | < 10
9 | 10 to 100 | 10 to 100 |  |  |  |  |  | CCn1c(=O)c(-c2cc(NC(=O)Nc3cccc(CN4CCN(C)CC4)c3)c(F)cc2Cl)cc2cnc(NC)cc21 [Example 79, 1-(4-chloro-5-(1-ethyl-7-(methylamino)-2-oxo-1,2-dihydro-1,6-naphthyridin-3-yl)-2-fluorophenyl)-3-(3-((4-methylpiperazin-1-yl)methyl)phenyl)urea] | < 10
10 | 10 to 100 | 10 to 100 |  |  |  |  |  | CCn1c(=O)c(-c2cc(NC(=O)Nc3cc(F)cc(CN4CCN(C)CC4)c3)c(F)cc2Cl)cc2cnc(NC)cc21 [Example 88, 1-(4-chloro-5-(1-ethyl-7-(methylamino)-2-oxo-1,2-dihydro-1,6-naphthyridin-3-yl)-2-fluorophenyl)-3-(3-fluoro-5-((4-methylpiperazin-1-yl)methyl)phenyl)urea] | < 10
11 | 10 to 100 | 100 to 1000 | 100 to 1000 | 10 to 100 | 10 to 100 | 10 to 100 | 10 to 100 | CCn1c(=O)c(-c2cc(NC(=O)Nc3cc(F)cc(F)c3)c(F)cc2C)cc2cnc(NC(=O)N(C)C)cc21 [Example 108, 3-(3-(5-(3-(3,5-difluorophenyl)ureido)-4-fluoro-2-methylphenyl)-1-ethyl-2-oxo-1,2-dihydro-1,6-naphthyridin-7-yl)-1,1-dimethylurea] | 
